Experimental data: patent US20110002843A1, “METHOD OF DETECTING MYOCARDIAL DYSFUNCTION IN PATIENTS HAVING A HISTORY OF ASTHMA OR BRONCHOSPASM” (priority 2005, published 2011)

Assay: Pulmonary responses and safety in human subjects with mild, intermittent asthma (single-blind and double-blind parts)
Format: in vivo
Settings: for FEV1 (L) Mean % Change from Baseline (SD) / FEV1 (L) Mean (SD) / FVC Mean % Change from Baseline (SD) / FVC Mean (SD) / changes from baseline in mean FEV1, FEV1 (% predicted), FEF25%-75%, FVC / subjects with treatment-emergent AEs / FEF25%-75% Mean % Change from Baseline (SD) / FEF25%-75% Mean (SD) / FEV1 (% predicted) Mean % Change from Baseline (SD) / FEV1 (% predicted) Mean (SD): single-blind
Experimental: Methodology: The study consisted of 2 parts, a Single-Blind Part and a Double-Blind Part. The dose escalating, Single-Blind Part enrolled subjects with mild, intermittent asthma and consisted of 3 sequentially enrolled dosing cohorts with 8 subjects per cohort, such that Dosing Cohorts 1, 2 and 3 received binodenoson target doses of 0.5 μg/kg, 1.0 μg/kg and 1.5 μg/kg, respectively. All 8 subjects in a dosing cohort must have completed dosing at the assigned dose and a medical review of each cohort must have been acceptable before enrollment in the next cohort began. The Double-Blind Part was initiated only if the medical review of all safety data from the Single-Blind Part was acceptable. In the Double Blind Part, subjects with mild, intermittent asthma were randomly assigned in a 2:1 ratio to receive either binodenoson 1.5 μg/kg (n=40 planned) or placebo control (n=20 planned).
Both study parts were comprised of Screening, Treatment and Follow-Up Visits. The Screening Visit occurred 7 to 14 days before the Treatment Visit and consisted of a physical examination, medical history and application of inclusion and exclusion criteria. Subjects were instructed to measure peak expiratory flow (PEF) and asthma symptoms during a period of at least 7 days prior to the Treatment Visit. Subjects were to continue to meet all Screening eligibility criteria at the Treatment Visit and forced expiratory volume in 1 second (FEV1) was to remain within 80% of predicted for subjects to be eligible for dosing. All subjects enrolled in the Single-Blind Part and subjects randomized to receive binodenoson in the Double-Blind Part received 3 intravenous (IV) injections during the Treatment Visit: (1) placebo; (2) a low, challenge binodenoson dose to detect potential hypersensitivity reactions; and (3) an assigned binodenoson test dose. Subjects randomized to receive placebo in the Double Blind Part received 3 placebo injections. The Follow-Up Visit occurred 2 to 4 days following the Treatment Visit.
Eligible subjects were males or non-pregnant, nonlactating females ≧18 years of age weighing <350 pounds with a medical history of mild, intermittent asthma (as defined in the “Guidelines for the Diagnosis and Management of Asthma” prepared by the National Institutes of Health [NIH]) within 6 months of Screening.
Subjects were not eligible for the study if they had resting sitting systolic blood pressure (SBP)<100 or >140 mmHg, diastolic blood pressure (DBP)<60 or >90 mmHg, pulse rate >95 beats per minute (bpm), or a lower limit FEV1 at rest of <80% of the predicted value at Screening.
Dose and Mode of Administration: A stock solution of binodenoson (25 μg/mL) was administered as a bolus injection over 30 seconds (0.1 μg/kg=0.004 mL/kg of stock solution, 0.5 μg/kg=0.02 mL/kg of stock solution, 1.0 μg/kg=0.04 mL/kg of stock solution and 1.5 μg/kg=0.06 mL/kg of stock solution).
Duration of Treatment: Each subject received three 30-second bolus IV injections separated by ≧90 minutes in both the Single Blind and Double-Blind Parts of the study.
Criteria for Evaluation: The primary safety endpoint was clinically significant bronchoconstriction, defined as a ≧20% decrease in FEV1 from the predrug baseline following binodenoson administration. Other safety assessments included need for rescue medication, regular measurements of pulmonary function (FEV1 [% predicted], forced vital capacity [FVC] and forced expiratory flow during the middle half of the FVC [FEF25%-75%]), vital signs, pulse oximetry, physical examination findings, electrocardiogram (ECG) results, clinical laboratory results and adverse events.
Statistical Methods: All data collected in the study were summarized by treatment (placebo; 0.1 μg/kg binodenoson challenge; or 0.5, 1.0, or 1.5 μg/kg binodenoson) and study Part (Single-Blind or Double-Blind with univariate summaries). Continuous variables were summarized with descriptive statistics (n, mean, median, standard deviation [SD] and minimum and maximum). […]

[1] = Cohort 3, second injection 0.1 μg/kg iv bolus, 90 minutes
[2] = third injection 0.5 μg/kg iv bolus, 5 min
[3] = third injection 0.5 μg/kg iv bolus, 15 min
[4] = third injection 0.5 μg/kg iv bolus, 45 min
[5] = third injection 0.5 μg/kg iv bolus, 90 min
[6] = third injection 1.0 μg/kg iv bolus, 5 min
[7] = third injection 1.0 μg/kg iv bolus, 15 min
[8] = third injection 1.0 μg/kg iv bolus, 45 min
[9] = third injection 1.0 μg/kg iv bolus, 90 min
[10] = third injection 1.5 μg/kg iv bolus, 5 min
[11] = third injection 1.5 μg/kg iv bolus, 15 min
[12] = third injection 1.5 μg/kg iv bolus, 45 min
[13] = third injection 1.5 μg/kg iv bolus, 90 min

## Nc1nc(N/N=C/C2CCCCC2)nc2c1ncn2[C@@H]1O[C@H](CO)[C@@H](O)[C@H]1O (stereo in doubt) [Binodenoson, 2-{2-[(Cyclohexyl)methylene]hydrazino}adenosine]
[1]
  FEV1 (L) Mean % Change from Baseline (SD): 0.901 (2.441) %
  FEV1 (L) Mean (SD): 3.343 (0.657) L
  FVC Mean % Change from Baseline (SD): −0.163 (0.894) %
  FVC Mean (SD): 4.334 (0.850)
After binodenoson 0.1 μg/kg injection
  changes from baseline in mean FEV1, FEV1 (% predicted), FEF25%-75%, FVC: No clinically significant changes from baseline
Binodenoson 0.1 μg/kg
  subjects with treatment-emergent AEs: No subjects experienced treatment-emergent AEs
Third injection 0.5 μg/kg
  subjects with treatment-emergent AEs: 25%
[2]
  FEF25%-75% Mean % Change from Baseline (SD): −3.549 (6.717) %
  FEF25%-75% Mean (SD): 3.111 (0.915)
  FEV1 (% predicted) Mean % Change from Baseline (SD): −2.3 (3.4) %
  FEV1 (% predicted) Mean (SD): 92.6 (12.5) % predicted
  FEV1 (L) Mean % Change from Baseline (SD): −2.327 (3.977) %
  FEV1 (L) Mean (SD): 3.995 (0.820) L
  FVC Mean % Change from Baseline (SD): −1.162 (2.708) %
  FVC Mean (SD): 5.581 (1.151)
[3]
  FEF25%-75% Mean % Change from Baseline (SD): −1.773 (3.375) %
  FEF25%-75% Mean (SD): 3.169 (0.885)
  FEV1 (% predicted) Mean % Change from Baseline (SD): −0.9 (2.1) %
  FEV1 (% predicted) Mean (SD): 94.0 (11.9) % predicted
  FEV1 (L) Mean % Change from Baseline (SD): −0.967 (2.171) %
  FEV1 (L) Mean (SD): 4.049 (0.800) L
  FVC Mean % Change from Baseline (SD): −0.033 (1.645) %
  FVC Mean (SD): 5.640 (1.130)
[4]
  FEF25%-75% Mean % Change from Baseline (SD): −2.338 (5.471) %
  FEF25%-75% Mean (SD): 3.158 (0.899)
  FEV1 (% predicted) Mean % Change from Baseline (SD): −1.5 (2.1) %
  FEV1 (% predicted) Mean (SD): 93.4 (11.7) % predicted
  FEV1 (L) Mean % Change from Baseline (SD): −1.455 (2.494) %
  FEV1 (L) Mean (SD): 4.034 (0.821) L
  FVC Mean % Change from Baseline (SD): −0.838 (3.371) %
  FVC Mean (SD): 5.591 (1.122)
[5]
  FEF25%-75% Mean % Change from Baseline (SD): −3.732 (9.304) %
  FEF25%-75% Mean (SD): 3.106 (0.892)
  FEV1 (% predicted) Mean % Change from Baseline (SD): −2.0 (3.4) %
  FEV1 (% predicted) Mean (SD): 92.9 (12.5) % predicted
  FEV1 (L) Mean % Change from Baseline (SD): −2.365 (3.864) %
  FEV1 (L) Mean (SD): 4.000 (0.840) L
  FVC Mean % Change from Baseline (SD): −0.963 (3.579) %
  FVC Mean (SD): 5.600 (1.196)
Third injection 1.0 μg/kg
  subjects with treatment-emergent AEs: 50%
[6]
  FEF25%-75% Mean % Change from Baseline (SD): 2.938 (17.701) %
  FEF25%-75% Mean (SD): 3.571 (1.546)
  FEV1 (% predicted) Mean % Change from Baseline (SD): −0.1 (5.7) %
  FEV1 (% predicted) Mean (SD): 93.5 (11.5) % predicted
  FEV1 (L) Mean % Change from Baseline (SD): −0.071 (5.830) %
  FEV1 (L) Mean (SD): 3.889 (0.883) L
  FVC Mean % Change from Baseline (SD): 0.316 (3.947) %
  FVC Mean (SD): 5.106 (1.192)
[7]
  FEF25%-75% Mean % Change from Baseline (SD): 1.896 (7.770) %
  FEF25%-75% Mean (SD): 3.534 (1.364)
  FEV1 (% predicted) Mean % Change from Baseline (SD): 0.0 (3.8) %
  FEV1 (% predicted) Mean (SD): 93.6 (13.0) % predicted
  FEV1 (L) Mean % Change from Baseline (SD): 0.113 (3.892) %
  FEV1 (L) Mean (SD): 3.899 (0.884) L
  FVC Mean % Change from Baseline (SD): −0.138 (3.728) %
  FVC Mean (SD): 5.078 (1.156)
[8]
  FEF25%-75% Mean % Change from Baseline (SD): 7.715 (11.942) %
  FEF25%-75% Mean (SD): 3.759 (1.554)
  FEV1 (% predicted) Mean % Change from Baseline (SD): 0.6 (6.3) %
  FEV1 (% predicted) Mean (SD): 94.3 (16.4) % predicted
  FEV1 (L) Mean % Change from Baseline (SD): 0.344 (6.156) %
  FEV1 (L) Mean (SD): 3.926 (1.012) L
  FVC Mean % Change from Baseline (SD): −1.792 (6.201) %
  FVC Mean (SD): 5.020 (1.300)
[9]
  FEF25%-75% Mean % Change from Baseline (SD): 9.498 (11.643) %
  FEF25%-75% Mean (SD): 3.830 (1.595)
  FEV1 (% predicted) Mean % Change from Baseline (SD): 2.6 (4.5) %
  FEV1 (% predicted) Mean (SD): 96.3 (15.9) % predicted
  FEV1 (L) Mean % Change from Baseline (SD): 2.406 (4.249) %
  FEV1 (L) Mean (SD): 4.005 (0.983) L
  FVC Mean % Change from Baseline (SD): −0.051 (2.348) %
  FVC Mean (SD): 5.105 (1.262)
Third injection 1.5 μg/kg
  subjects with treatment-emergent AEs: 75%
[10]
  FEF25%-75% Mean % Change from Baseline (SD): 2.411 (12.016) %
  FEF25%-75% Mean (SD): 2.880 (0.584)
  FEV1 (% predicted) Mean % Change from Baseline (SD): 0.4 (2.6) %
  FEV1 (% predicted) Mean (SD): 91.6 (8.1) % predicted
  FEV1 (L) Mean % Change from Baseline (SD): 0.336 (2.702) %
  FEV1 (L) Mean (SD): 3.344 (0.610) L
  FVC Mean % Change from Baseline (SD): 0.031 (2.871) %
  FVC Mean (SD): 4.334 (0.845)
[11]
  FEF25%-75% Mean % Change from Baseline (SD): 2.110 (5.540) %
  FEF25%-75% Mean (SD): 2.890 (0.645)
  FEV1 (% predicted) Mean % Change from Baseline (SD): −0.5 (2.0) %
  FEV1 (% predicted) Mean (SD): 90.8 (7.8) % predicted
  FEV1 (L) Mean % Change from Baseline (SD): −0.380 (2.306) %
  FEV1 (L) Mean (SD): 3.330 (0.666) L
  FVC Mean % Change from Baseline (SD): −1.335 (2.366) %
  FVC Mean (SD): 4.281 (0.882)
[12]
  FEF25%-75% Mean % Change from Baseline (SD): −1.475 (6.450) %
  FEF25%-75% Mean (SD): 2.803 (0.705)
  FEV1 (% predicted) Mean % Change from Baseline (SD): −0.4 (2.3) %
  FEV1 (% predicted) Mean (SD): 90.9 (7.9) % predicted
  FEV1 (L) Mean % Change from Baseline (SD): −0.439 (2.820) %
  FEV1 (L) Mean (SD): 3.331 (0.682) L
  FVC Mean % Change from Baseline (SD): −0.179 (2.938) %
  FVC Mean (SD): 4.326 (0.872)
[13]
  FEF25%-75% Mean % Change from Baseline (SD): 0.469 (2.514) %
  FEF25%-75% Mean (SD): 2.851 (0.654)
  FEV1 (% predicted) Mean % Change from Baseline (SD): 0.6 (1.3) %
  FEV1 (% predicted) Mean (SD): 91.9 (7.4) % predicted
  FEV1 (L) Mean % Change from Baseline (SD): 0.617 (1.762) %
  FEV1 (L) Mean (SD): 3.365 (0.680) L
  FVC Mean % Change from Baseline (SD): 0.537 (2.460) %
  FVC Mean (SD): 4.358 (0.878)
Third injection (0.5, 1.0, 1.5 μg/kg)
  changes from baseline in mean FEV1, FEV1 (% predicted), FEF25%-75%, FVC: no clinically significant changes from baseline
Whole study
  deaths, serious AEs, premature discontinuations due to AEs: no deaths, serious AEs, or premature discontinuations due to AEs
  laboratory evaluations, ECG, pulse oximetry: No clinically meaningful results
